Test results published in ChEMBL document CHEMBL1157741, “Synthesis and antituberculosis activity of novel mefloquine-isoxazole carboxylic esters as prodrugs” (Bioorg Med Chem Lett, 2010).
pIC50: −log10 of the molar value. ≈ marks a conversion by molar mass, not a printed value.

How the values were obtained:
Vero = assay: Cytotoxicity against african green monkey Vero cells after 72 hrs; assay type: cell-based; conditions: Chlorocebus sabaeus
[1] = Selectivity index, ratio of IC50 for african green monkey Vero cells to MIC for Mycobacterium tuberculosis H37Rv by low oxygen recovery assay; assay type: functional
[2] = Selectivity index, ratio of IC50 for african green monkey Vero cells to MIC for Mycobacterium tuberculosis H37Rv by microplate alamar blue assay; assay type: functional
[3] = system: Mycobacterium tuberculosis; assay: Antitubercular activity against Mycobacterium tuberculosis H37Rv after 72 hrs by microplate alamar blue assay; assay type: functional
[4] = system: Mycobacterium tuberculosis; assay: Antitubercular activity against Mycobacterium tuberculosis H37Rv after 28 hrs by low oxygen recovery assay; assay type: functional
Escherichia coli = assay: Antimicrobial activity against Escherichia coli; assay type: functional
Candida albicans = assay: Antimicrobial activity against Candida albicans; assay type: functional
Bacillus anthracis = assay: Antimicrobial activity against Bacillus anthracis; assay type: functional
[5] = system: Mycolicibacterium smegmatis; assay: Antimicrobial activity against Mycobacterium smegmatis; assay type: functional
Staphylococcus aureus = assay: Antimicrobial activity against Staphylococcus aureus; assay type: functional
[6] = system: Mycobacterium tuberculosis; assay: Antimicrobial activity against Mycobacterium tuberculosis Erdman; assay type: functional
[7] = system: Mycobacterium tuberculosis; assay: Antitubercular activity against Mycobacterium tuberculosis H37Rv at pH 6.8 by microplate alamar blue assay; assay type: functional
[8] = system: Mycobacterium tuberculosis; assay: Antitubercular activity against Mycobacterium tuberculosis Erdman infected in mouse J774A.1 cells; assay type: functional
[9] = system: Mycobacterium tuberculosis; assay: Antitubercular activity against Mycobacterium tuberculosis H37Rv at pH 6 by microplate alamar blue assay; assay type: functional
[10] = Inhibition of CYP; assay type: ADME
[11] = Toxicity in po dosed BALB/c mouse assessed as maximum tolerated dose treated for 5 days; assay type: organism-based; conditions: in vivo
[12] = system: Mycobacterium tuberculosis; assay: Antitubercular activity against Mycobacterium tuberculosis H37Rv at pH 6.8 by microplate alamar blue assay relative to control; assay type: functional

| SMILES | pIC50 (Vero) | Selectivity Index [1] | Selectivity Index [2] | MIC [3] | MIC [4] | other results |
| --- | --- | --- | --- | --- | --- | --- |
| CCOC(=O)c1cc(COc2ccc3ncccc3c2)on1 | < 3.89 | >10 | >17.3 | 7.4 µM (≈ 2.21 µg/mL) | 12.8 µM (≈ 3.82 µg/mL) |  |
| CCOC(=O)c1cc(COc2cc(C(F)(F)F)nc3c(C(F)(F)F)cccc23)on1 | < 3.89 | >10.5 | >142.2 | 0.9 µM (≈ 0.391 µg/mL) | 12.1 µM (≈ 5.25 µg/mL) | MIC (Escherichia coli): > 128 µM; MIC (Candida albicans): > 128 µM; MIC (Bacillus anthracis): > 128 µM; MIC [5]: > 128 µM; MIC (Staphylococcus aureus): > 128 µM; MIC [6]: 1.74 µM (≈ 0.756 µg/mL); MIC [7]: 0.9 µM (≈ 0.391 µg/mL); EC90 [8]: 4.1 µM; EC99 [8]: 18.3 µM; MIC [9]: 0.1 µM (≈ 0.0434 µg/mL); inhibition (INH) [10]: Not Active |
| CCOC(=O)c1cc(COc2ccnc3ccccc23)on1 | < 3.89 |  | >5.1 | 25.1 µM (≈ 7.49 µg/mL) | 11.3 µM (≈ 3.37 µg/mL) |  |
| NNC(=O)c1cc(COc2cc(C(F)(F)F)nc3c(C(F)(F)F)cccc23)on1 | < 3.89 |  |  | > 128 µM | > 128 µM |  |
| CC(=O)OCc1cc(COc2cc(C(F)(F)F)nc3c(C(F)(F)F)cccc23)on1 | < 3.89 |  |  | > 128 µM | > 128 µM |  |
| CCc1noc(-c2cc(COc3cc(C(F)(F)F)nc4c(C(F)(F)F)cccc34)on2)n1 | < 3.89 |  |  | > 128 µM | > 128 µM |  |
| CCOC(=O)c1cc(COc2cc(C(F)(F)F)c3nc(C(F)(F)F)cc(OCc4cc(C(=O)OCC)no4)c3c2)on1 | < 3.89 | >8.2 | >7.3 | 17.6 µM (≈ 10.6 µg/mL) | 15.6 µM (≈ 9.41 µg/mL) |  |
| CCOC(=O)c1cc(COc2cccc3cccnc23)on1 | < 3.89 | >1 | >3.2 | 39.8 µM (≈ 11.9 µg/mL) | 125 µM (≈ 37.3 µg/mL) |  |
| O=C(c1cc(COc2cc(C(F)(F)F)nc3c(C(F)(F)F)cccc23)on1)N1CCCCO1 | < 3.89 |  |  | > 128 µM | > 128 µM |  |
| CCCCCCOC(=O)c1cc(COc2cc(C(F)(F)F)nc3c(C(F)(F)F)cccc23)on1 | < 3.89 | >4.8 | >8.4 | 15.3 µM (≈ 7.5 µg/mL) | 26.7 µM (≈ 13.1 µg/mL) |  |
| O=C(OCc1ccccc1)c1cc(COc2cc(C(F)(F)F)nc3c(C(F)(F)F)cccc23)on1 | < 3.89 | >2.5 | >4.8 | 26.5 µM (≈ 13.2 µg/mL) | 50.7 µM (≈ 25.2 µg/mL) |  |
| O=C(OCCC(F)(F)F)c1cc(COc2cc(C(F)(F)F)nc3c(C(F)(F)F)cccc23)on1 | < 3.89 | >4.3 | >5.1 | 25 µM (≈ 12.6 µg/mL) | 29.9 µM (≈ 15 µg/mL) |  |
| CCCCOC(=O)c1cc(COc2cc(C(F)(F)F)nc3c(C(F)(F)F)cccc23)on1 | 3.98 | >10.6 | >109.1 | 0.9 µM (≈ 0.416 µg/mL) | 9.9 µM (≈ 4.58 µg/mL) |  |
| CCCOC(=O)c1cc(COc2cc(C(F)(F)F)nc3c(C(F)(F)F)cccc23)on1 | < 3.89 | >4.9 | >71.2 | 1.8 µM (≈ 0.807 µg/mL) | 26.1 µM (≈ 11.7 µg/mL) |  |
| CCOC(=O)c1cc(COc2ccc3ccc(C(F)(F)F)nc3c2)on1 | < 3.89 | >5.9 | >25.6 | 3.6 µM (≈ 1.32 µg/mL) | 21.6 µM (≈ 7.91 µg/mL) |  |
| CCOC(=O)c1cc(COc2ccc3cccnc3c2)on1 | 3.97 | >2.7 | >9.9 | 10.8 µM (≈ 3.22 µg/mL) | 40.3 µM (≈ 12 µg/mL) |  |
| CCOC(=O)c1cc(COc2cccc3ncccc23)on1 | < 3.89 | >4.1 | >3.6 | 35.1 µM (≈ 10.5 µg/mL) | 31.1 µM (≈ 9.28 µg/mL) |  |
| CCOC(=O)c1cc(COc2ccc3cc[nH]c3c2)on1 | < 3.89 | >2.9 | >14.9 | 8.6 µM (≈ 2.46 µg/mL) | 42.9 µM (≈ 12.3 µg/mL) |  |
| NC(=O)c1cc(COc2cc(C(F)(F)F)nc3c(C(F)(F)F)cccc23)on1 | < 3.89 |  |  | > 128 µM | > 128 µM |  |
| CCN(CC)C(=O)c1cc(COc2cc(C(F)(F)F)nc3c(C(F)(F)F)cccc23)on1 | 4.33 |  |  | > 128 µM | > 128 µM |  |
| O=C(O)c1cc(COc2cc(C(F)(F)F)nc3c(C(F)(F)F)cccc23)on1 |  |  |  |  |  | MIC (Escherichia coli): > 128 µM; MIC (Candida albicans): > 128 µM; MIC (Bacillus anthracis): 32 µM (≈ 13 µg/mL); MIC [5]: > 128 µM; MIC (Staphylococcus aureus): 22 µM (≈ 8.94 µg/mL); MTD at 120 h [11]: 400 mg/kg; MIC [6]: > 128 µM; Activity [12]: 89%; MIC [7]: > 128 µM; MIC [9]: 7.7 µM (≈ 3.13 µg/mL) |
| OCc1cc(COc2cc(C(F)(F)F)nc3c(C(F)(F)F)cccc23)on1 | < 3.89 |  |  | > 128 µM | > 128 µM |  |
| CCOC(=O)c1cc(COc2ccc3ccccc3n2)on1 | < 3.89 | >2 | >1.2 | 103 µM (≈ 30.8 µg/mL) | 64 µM (≈ 19.1 µg/mL) |  |
| CCOC(=O)c1cc(COc2ccc([N+](=O)[O-])c(C(F)(F)F)c2)on1 | < 3.89 | >2.1 | >36.6 | 3.5 µM (≈ 1.26 µg/mL) | 62.2 µM (≈ 22.4 µg/mL) |  |
| NNC(=O)c1ccncc1 [ISONIAZID] |  |  |  |  |  | MIC [7]: 0.1 µM (≈ 0.0137 µg/mL); MIC [9]: 0.1 µM (≈ 0.0137 µg/mL) |
| OC(c1cc(C(F)(F)F)nc2c(C(F)(F)F)cccc12)C1CCCCN1 (configuration not stated) [MEFLOQUINE] |  | 1.6 | 0.9 | 13 µM (≈ 4.92 µg/mL) | 7 µM (≈ 2.65 µg/mL) |  |
| NC(=O)c1cnccn1 [PYRAZINAMIDE] |  |  |  |  |  | MIC [7]: > 4000 µM; MIC [9]: 829 µM (≈ 102 µg/mL) |
| CO[C@H]1/C=C/O[C@@]2(C)Oc3c(C)c(O)c4c(O)c(c(/C=N/N5CCN(C)CC5)c(O)c4c3C2=O)NC(=O)/C(C)=C\C=C\[C@H](C)[C@H](O)[C@@H](C)[C@@H](O)[C@@H](C)[C@H](OC(C)=O)[C@@H]1C [RIFAMPIN] |  |  |  | 0.1 µM (≈ 0.0823 µg/mL) | 2 µM (≈ 1.65 µg/mL) | MIC [7]: 0.1 µM (≈ 0.0823 µg/mL) |
